How the values were obtained:
[1] = test system: peptide-specific T cells in patient-derived peripheral blood mononuclear cells (PBMC); type: cell-based, human (HLA-A*0201 HCV positive patient); conditions: for Counts-mean size >10 / Counts-mean size >25 / Counts-mean size >75: IFN-g ELIspot spot counts, Patient, Plate 11_01_03, patient-derived PBMC; for Counts-mean size >10: spot size >10; for Counts-mean size >25: spot size >25; for Counts-mean size >75: spot size >75; for number of peptide-specific T cells (IFN-g Elispot): PBMC of patient cured of chronic HCV infection, frozen 1996 (Table 5, FIG. 3)
Excerpt: Since those ncORF peptides are immunogenic in tg-mice, the present peptides were ananlysed in an ELIspot assay on PBL's from HCV+ patients.
Patient-derived peripheral blood mononuclear cells (PBMC) frozen in 1996 were thawed to perform an IFN-g Elispot assay with the following peptides: […]

[2] = test system: peptide-specific IFN-γ producing cells; set-up: species or system C57B1/6 mice; conditions: mouse, in vivo, sc

## FMLGALLPI [Ipep 1373]
[1]
  Counts-mean size >10: 159
  Counts-mean size >25: 86
  Counts-mean size >75: 3
  number of peptide-specific T cells (IFN-g Elispot): high numbers of peptide-specific T cells

## VTILNLALL [p1664]
[2]
  peptide-specific IFN-γ spots (ELIspot): specifically release IFN-γ

## LLLQRWALV [Ipep 1372]
[1]
  Counts-mean size >10: 43
  Counts-mean size >25: 36
  Counts-mean size >75: 13
  number of peptide-specific T cells (IFN-g Elispot): high numbers of peptide-specific T cells

## IASNENMETM [p1574, reference compound]
[2]
  peptide-specific IFN-γ spots (ELIspot): do not show any specific spots

## SSIAAQDAL [p1600]
[2]
  peptide-specific IFN-γ spots (ELIspot): do not show any specific spots

## TLWAGPLLKV [Ipep 1371]
[1]
  Counts-mean size >10: 24
  Counts-mean size >25: 15
  Counts-mean size >75: 2
  number of peptide-specific T cells (IFN-g Elispot): high numbers of peptide-specific T cells

## TMLYNKMEF [p1569]
[2]
  peptide-specific IFN-γ spots (ELIspot): specifically release IFN-γ

— patent US7528223B2 (priority 2002, dated 2009)
